The test system of one data set is LLC tumors. The data set can be described thus: In vivo antitumor activity test, LLC tumors in mice. Also noted: Tumor inhibition rate: concentration or dose not given beside the values. To be noted: LLC tumors in C57BL6 mice, once per day, 21 days; for Tumor weight: CTX intraperitoneal 150 mg·kg^−1, compounds intragastric; for Tumor inhibition rate: from average tumor weight vs model group.

Data set [1] in a line: Effects of compounds on body weight of mice in the LLC tumor test. The following applies: LLC tumor-bearing mice.
Data set [2] has as its system mice with Alzheimer (AD model). The data set can be described thus: Morris water maze detection of behavioral changes in mice with Alzheimer. The data set is classed as in vivo. To be noted: for Number of stays / Time of stay: spatial probe test, sixth day. On the procedure:
Mouse behavioral analysis was performed using a Morris water maze (Ethovision XT monitoring and analysis software, Morris water maze system, from Noldus, Netherlands). The water maze test process was divided into two parts, hidden platform acquisition test for consecutive 5 days, and spatial probe test on the sixth day, the mice were administered according to the test groups and the design doses before each test. The mice were trained 4 times a day, each time the mice were dived in different areas, the water maze was divided into areas 1, 2, 3 and 4 according to the south, east, north and west, and the platform was the 5th area located in the 4th area. […] The hidden platform acquisition test was used to detect the learning ability of mice, while the spatial probe test was used to detect the spatial memory ability of mice.
Using the statistical analysis software SPSS16.0, the escape latent period of the hidden platform acquisition test was analyzed by variance of multiple measures; and the swimming time in each quadrant and the number of crossing target in the spatial probe test were analyzed by one-way analysis of variance. The data were expressed as mean±standard deviation, and the significant level of difference was set as bilateral P=0.05.

Data set [3] relates to DC-stimulated T cell proliferation. In words: DC-stimulated T cell proliferation assay (MLR). The class given is cell-based, human. The following applies: MTT, A570 nm, 72 hours. The procedure:
The human peripheral blood leukocyte layer was taken and diluted with same volume of 0.01 mol/L PBS. PBMC was routinely isolated with a lymphocyte separation medium, and the cell concentration was adjusted to 3×10^6 ml^−1 in a complete RPMI1640 medium; the cells were added to a 6-well plate, 3 ml per well, and cultured in a 5% CO2, 37° C. incubator for 2 hours, washed with PBS for 3 times to remove non-adherent cells, then added with a culture medium containing IL-4 (100 U/ml), GM-CSF (150 ng/ml) and TNF-α (500 U/ml), and then routinely cultured, the medium was changed for half every other day. After 8 days of culture, the cells were used for identification and experiment.
The human PBMC layer was separated by the method in the step 1. The macrophages were removed by the adherence method, the B cells were removed by the nylon wool fiber syringe method, and the obtained T cells were adjusted to a cell concentration of 1×10^6 cells/ml.
The mature DCs with a purity of 99% were centrifuged, added with RPMI1640 to adjust the cell concentration to 1×10^5, 4×10^4, 2×10^4/ml, and added to a 96-well plate, two wells for each concentration, 100 μl/well.
T cells were added to DCs of each of the above drug-added groups, 100 μl/well, cultured in a 5% CO2, 37° C. incubator for 72 hours; for each well, 100 μl of the culture solution was gently sucked out 6 hours before the end of the culture, and 10 μl of MTT (5 mg/ml) was added, further cultured in incubator for 6 hours, then 100 μl of 0.01 mol/L HCl-10% SDS was added, stood at 37° C. overnight, and the absorbance value (A570 nm) was determined by a microplate to show the T cell proliferation level.

The conditions of data set [4]: mouse, in vivo.
Data set [5] has as its target T1, human indoleamine 2,3-dioxygenase (Homo sapiens, UniProt P14902).
T1 construct: made in house; host or cells: E. coli
In words: Determination of the activity for inhibiting indoleamine 2,3-dioxygenase and IC50. The class given is biochemical. The following applies: purified human IDO, 200 μM L-tryptophan, 37° C., 60 minutes, pH 6.5.

pIC50: −log10 of the molar value.

T1 sequence (P14902 whole entry): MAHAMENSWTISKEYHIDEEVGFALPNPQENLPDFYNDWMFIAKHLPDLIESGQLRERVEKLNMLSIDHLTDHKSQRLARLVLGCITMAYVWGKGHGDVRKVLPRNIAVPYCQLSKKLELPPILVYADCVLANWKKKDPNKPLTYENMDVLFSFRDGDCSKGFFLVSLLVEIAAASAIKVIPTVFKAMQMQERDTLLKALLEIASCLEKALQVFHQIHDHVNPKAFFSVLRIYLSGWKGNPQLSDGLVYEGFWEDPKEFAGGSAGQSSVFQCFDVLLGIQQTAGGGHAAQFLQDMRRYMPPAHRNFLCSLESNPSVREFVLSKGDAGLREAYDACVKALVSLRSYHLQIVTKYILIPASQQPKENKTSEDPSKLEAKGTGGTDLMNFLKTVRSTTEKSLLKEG

In the data set with LLC tumors, `O=P1(N(CCCl)CCCl)NCCCO1` (centres unmarked) [CTX, cyclophosphamide, reference compound] returned a Tumor weight of 0.701 ± 0.314 g and a Tumor inhibition rate of 53.7%. For the same molecule, the “Average body weight after test” value in data set [1] (after test (21 days of administration)) was 19 ± 3.3 g. Further, the “Average body weight before test” value in data set [1] (before test) was found to be 22 ± 3.1 g.
Usually pIC50 stands for −log10 of the IC50, conventionally taken in molar units. For the molecule `N/C(=N\C(=O)C1CCC1)NCCCNc1nonc1/C(=N/O)Nc1ccc(F)c(Br)c1` [XSD3-079], the Tumor weight in the data set on LLC tumors is reported as 0.384 ± 0.092 g. The Tumor inhibition rate with LLC tumors is reported as 73.4%. Moreover, the “Latent period for searching platform in hidden platform test” value is on record as 40.5 ± 5.5 s in data set [2] (1st Day); 39.3 ± 44 s in data set [2] (2nd Day); 20.3 ± 4.2 s in data set [2] (3th Day); 17.7 ± 5.2 s in data set [2] (4th Day); 9.9 ± 5.2 s in data set [2] (5th Day). Further, the Number of stays amounted to 14.4 ± 1.3 times in data set [2] (4th Area) and 3.9 ± 0.5 times in data set [2] (5th Area (platform)). For the same molecule, the Time of stay in data set [2] (4th Area) is given as 26.7 ± 3.3 s; in data set [2] (5th Area (platform)) it was 5.8 ± 0.7 s. Further, the “T:DC (absorbance value)” value in data set [3] (T:DC 10:1) was determined as 0.876 ± 0.004; in data set [3] (T:DC 25:1), 0.850 ± 0.003; in data set [3] (T:DC 50:1), 0.837 ± 0.004. Moreover, the “body weight compared with the model group” value in data set [4] is “no significant difference in body weight”. In data set [5], this molecule had a pIC50 of 7.02.

These data come from patent US20200325109A1, “IMINO-UREA DERIVATIVES” (Lunan Pharmaceutical Group Corporation, priority 2017, published 2020).
